Like-named read-outs stand apart in the source and are kept apart here.
Experiments:
[1] = tested on: neutrophil infiltration (LPS-induced neutrophilia in BALF); test: Lipopolysaccharide (LPS) induced pulmonary neutrophilia; assay type: in vivo, female Sprague-Dawley rat; conditions: for ED50: Rattus norvegicus, Neutrophil, read-out: 50% inhibition (ED50) dose, neutrophil infiltration
Description: Roflumilast was prepared as a suspension in a suitable vehicle for oral administration. For intratracheal administration, roflumilast or roflumilast N-oxide was prepared as a dry powder mixture and administered by using a dry powder Insufflator (Penn-Century, USA) Animals were anaesthetized with ketamine and LPS solution was administered intratracheally one hour after roflumilast (at a dose of 0.3, 1, 3, and 10 mg/kg orally), or 30 minutes after roflumilast (at a dose of 10, 30 and 100 μg/kg i.t) or roflumilast N-oxide administration (at a dose of 10, 30 and 100 μg/kg, i.t). 6 hours after LPS instillation, animals were exsanguinated under anaesthesia, and then trachea were cannulated and the lungs were lavaged with 5-ml aliquots of heparinised PBS (1 unit/ml) four times through tracheal cannula (total volume 20 ml). BAL (bronchoalveolar lavage) fluid was stored at 2-8° C. until assayed for total cell and differential leukocyte count. Bronchioalveolar fluid was centrifuged (500×g for 10 minutes) and the resulting cell pellet was resuspended in 0.5 ml of heparinized saline. The total number of white blood cells were determined in BAL fluid using a blood cell counter and were adjusted to 1×10^6 cell/ml. Differential cell count was calculated manually. One hundred microliters of the cell suspension was centrifuged using cytospin 3 to prepare a cell smear. The cell smear was stained with a blood staining solution for differentiation and slides were microscopically observed to identify eosinophil according to their morphological characteristics. The number of each cell type among 300 white blood cells in the cell smear was determined and expressed as a percentage. The total number of neutrophils in each BAL fluid was calculated.
Roflumilast and roflumilast N-oxide were administered intratracheally (i.t) at doses of 100, 30, and 10 μg/kg as 1:200; 1:500; and 1:1000 drug:lactose blends, respectively.

macrophage infiltration = test: Acute cigarette smoke induced cell infiltration, macrophages; assay type: in vivo, female Balb/c mice; conditions: for Percent inhibition in macrophage infiltration: oral, day 1 to day 4
Description: (§1) Animals were acclimatized for seven days prior to the start of the experiment. The animals were randomly distributed to various groups based on their body weight. For oral administration of roflumilast and for intranasal administration of roflumilast N-oxide, roflumilast or roflumilast N-oxide were prepared as a suspension in a suitable vehicle. On day 1, mice were administered roflumilast N-oxide or roflumilast and after 1 hour, the animals were placed in a whole body exposure box. On day 1 and day 2, the mice were exposed to the mainstream smoke of 6 cigarettes, and 8 cigarettes on day 3 and day 4. Exposure to the smoke of each cigarette lasted for 10 minutes (cigarettes were completely burned in the first two minutes and followed by an air flow with animal ventilator, then 20 minutes exposure to fresh room air). After every second cigarette an additional break of 20 minutes with exposure to fresh room air was conducted. Control animals were exposed to room air chamber. From day 1 to day 4, the animals were administered roflumilast N-oxide or roflumilast. On day 5, 24 hours after the last cigarette smoke (CS) exposure, the animals were exsanguinated under anaesthesia, the trachea were cannulated and the lungs were lavaged with 0.5-ml aliquots of heparinised PBS (1 unit/ml) four times through tracheal cannula (total volume 2 ml). Bronchioalveolar (BAL) collected was stored at 2-8° C. until assayed for total cell and differential leukocyte count. BAL fluid was centrifuged (500×g for 10 minutes) and the resulting cell pellet was resuspended in 0.5 ml of heparinised saline. The total number of white blood cells was determined in BAL fluid and adjusted to 1×10^6 cell/ml. Differential cell count was calculated manually by diff-quick staining. Forty microliters of the cell suspension was centrifuged using cytospin 3 to prepare a cell smear. The cell smear was stained with a blood staining solution for differentiation and microscopically observed to identify cell type according to their morphological characteristics. The number of each cell type among 300 white blood cells in the cell smear were determined and expressed as a percentage, and the number of neutrophils and macrophages in each BAL fluid were calculated.
(§2) Roflumilast and roflumilast N-oxide as a suspension in polysorbate 80 (1% v/v) and methyl cellulose (MC) (0.5% w/v) were used for oral and intranasal administration respectively.

[2] = 7-day repeat dose safety study; assay type: in vivo, Wistar Rats
Description: In order to determine the safety of roflumilast N-oxide by inhalation compared to roflumilast by oral administration, a 7- and 14-day repeat dose safety study was conducted according to the protocol given in Table 5 below.

[3] = Lung microsome metabolic stability, rat; assay type: in vitro ADME; conditions: rat lung microsomes, 1 μM test item, 60 minutes, NADPH
Description: (§3) Metabolic stability studies were conducted using rat, dog and human lung microsomes. The protocol for the studies with rat, dog, and human lung microsomes (from Xenotech, USA) is provided below.
(§4) 0.4 mg protein was preincubated with 2 mM NADPH (cofactor) in phosphate buffer (pH˜7.4) for 15 minutes at […] and then added with 1 μM test item and incubated further for 60 minutes in triplicate. The reaction mixture was terminated with methanol containing an internal standard and centrifuged further to analyze the test item remaining in the supernatant by LC-MS/MS. The percent parent compound remaining was calculated in comparison with similar samples terminated at 0 minutes.

[4] = roflumilast n = 4438; count, second figure in brackets; cited from earlier work
[5] = Lung microsome metabolic stability, human; assay type: in vitro ADME; conditions: 1 μM test item, 60 minutes, NADPH
Description: as §3, §4

neutrophil infiltration = test: Acute cigarette smoke induced cell infiltration, neutrophils; assay type: in vivo, female Balb/c mice; conditions: for Percent inhibition in neutrophil infiltration: oral, day 1 to day 4
Description: as §1, §2

[6] = Lung microsome metabolic stability, dog; assay type: in vitro ADME; conditions: dog lung microsomes, 1 μM test item, 60 minutes, NADPH
Description: as §3, §4

O=C(Nc1c(Cl)cncc1Cl)c1ccc(OC(F)F)c(OCC2CC2)c1 [Roflumilast]
ED50 ([1]; inhaled or nasal, intratracheal administration): 0.026 mg/kg
ED50 ([1]; oral administration): 1.8 mg/kg
Percent inhibition in neutrophil infiltration ([1]; intratracheal dry powder, 10 μg/kg, 30 minutes before LPS): 31.76%
Percent inhibition in neutrophil infiltration ([1]; intratracheal dry powder, 30 μg/kg, 30 minutes before LPS): 60.47%
Percent inhibition in neutrophil infiltration ([1]; intratracheal dry powder, 100 μg/kg, 30 minutes before LPS): 64.40%
Percent inhibition in neutrophil infiltration ([1]; oral, 0.3 mg/kg, one hour before LPS, BAL 6 hours after LPS): −7.89%
Percent inhibition in neutrophil infiltration ([1]; oral, 1 mg/kg, one hour before LPS, BAL 6 hours after LPS): 43.46%
Percent inhibition in neutrophil infiltration ([1]; oral, 3 mg/kg, one hour before LPS, BAL 6 hours after LPS): 68.02%
Percent inhibition in neutrophil infiltration ([1]; oral, 10 mg/kg, one hour before LPS, BAL 6 hours after LPS): 92.21%
ED50 (macrophage infiltration; Mus musculus, Macrophage, oral administration, read-out: 50% inhibition (ED50) dose, macrophage infiltration): 3.5 mg/kg
Percent inhibition in macrophage infiltration (macrophage infiltration; 1 mg/kg (b.i.d. per FIG. 4)): 22.2%
Percent inhibition in macrophage infiltration (macrophage infiltration; 3 mg/kg (b.i.d. per FIG. 4)): 51.00%
Percent inhibition in macrophage infiltration (macrophage infiltration; 10 mg/kg (b.i.d. per FIG. 4)): 69.11%
MORTALITY ([2]; Oral, 10 mg/Kg/day, 7 days): 1M animal died on day 7
Multiple of ED50 at which toxic ([2]; Wistar, rat, in vivo, 7 days): 5.5 fold
Overall safety in repeat dose study ([2]; rat, in vivo, po, 10 mg/kg): showed significant toxicity
CLINICAL CHEMISTRY ([2]; rat, in vivo, po, 10 mg/kg/day): Yes, reduced serum
CLINICAL SIGNS ([2]; rat, in vivo, po, 10 mg/kg/day): Abnormal clinical
GROSS PATHOLOGY ([2]; rat, in vivo, po, 10 mg/kg/day): Yes, treatment related
HEMATOLOGY ([2]; rat, in vivo, po, 10 mg/kg/day): Yes, elevated WBC
Percent Parent Compound Remaining, Rat [3]: 97.1%
AEs: Back pain [4]: 142 (3.2)
AEs: Decreased appetite [4]: 91 (2.1)
AEs: Diarrhoea [4]: 420 (9.5)
AEs: Dizziness [4]: 92 (2.1)
AEs: Headache [4]: 195 (4.4)
AEs: Influenza [4]: 124 (2.8)
AEs: Insomnia [4]: 105 (2.4)
AEs: Nausea [4]: 209 (4.7)
AEs: Weight loss [4]: 331 (7.5)
Percent Parent Compound Remaining, Human Non Smoker ([5]; human non smoker lung microsomes): 99.8%
Percent Parent Compound Remaining, Human Smoker ([5]; human smoker lung microsomes): 98.8%
ED50 (neutrophil infiltration; Mus musculus, Neutrophil, oral administration, read-out: 50% inhibition (ED50) dose, neutrophil infiltration): 1.75 mg/kg
Percent inhibition in neutrophil infiltration (neutrophil infiltration; 1 mg/kg (b.i.d. per FIG. 4)): 70.85%
Percent inhibition in neutrophil infiltration (neutrophil infiltration; 3 mg/kg (b.i.d. per FIG. 4)): 73.69%
Percent inhibition in neutrophil infiltration (neutrophil infiltration; 10 mg/kg (b.i.d. per FIG. 4)): 83.01%
Percent Parent Compound Remaining, Dog [6]: 97.4%

Source: patent US11103488B2, “Methods of treating autoimmune, respiratory and inflammatory disorders by inhalation of roflumilast N-oxide” (Incozen Therapeutics Pvt. Ltd., priority 2013, dated 2021)
